Reference: US20040132817A1, “Use of an histone deacetylase inhibitor for the treatment of diseases associated with an hpv infection” (priority 2001, published 2004)

Assays:
HeLa cells = assay: Flow-cytometric cell cycle analysis of HeLa cells; type: cell-based, human; conditions: 6 mM sodium butyrate, 16 hours
Description: “Contr.”: untreated control. The different phases of the cell cycle are indicated (G1, S, G2, respectively). Lower part: quantification of the number of cells during the cell cycle (means of three independent experiments).
Cells were harvested by trypsinisation, washed twice with phosphate-buffered saline (PBS) and fixed overnight with 70% ethanol. The cells were resuspended in PBS containing 40 μg/ml of DNase-free RNase A and 50 μg/ml propidium iodide and cell cycle distribution was measured in a fluorescence-activated cell sorter (FACSort) from Becton Dickinson, San Jose, USA. DNA content was quantified by using the “Cell Quest” software (Becton Dickinson, San Jose, USA).
In order to elucidate the molecular effects of histone deacetylase inhibition in the context of HPV16/18-induced carcinogenesis, the HPV18-positive cervical carcinoma cell line HeLa as well as primary human foreskin keratinocytes, which were separately immortalized with amphotropic retroviruses carrying the open reading frames of HPV16 E6, E7 or E6/E7 were used in the experiments of the present invention. In order to assess the specific impact of histone deacetylase inhibition on cell proliferation, flow cytometric analysis of cellular DNA content was carried out (FIG. 1). […]

cdk4 = assay: Western blot of cdk4 in HeLa cells; type: cell-based, human; conditions: 6 mM sodium butyrate, 16 hours
Description: (§1) 50 μg of protein were separated on 12% SDS-PAGE minigels. After electrotransfer, the filters were incubated with antibodies against cyclin D1, cyclin E, cyclin A or cdk2, cdk4 or cdk6 specific antibodies. Equal protein loading was confirmed by reincubating the filters with a monoclonal actin antibody.
(§2) Cellular extracts were separated in 8-12% SDS PAGE gels and electrotransferred as described elsewhere (Finzer et al., Oncogene 19 (2000), 3235-3244; Soto et al., Oncogene 18 (1999), 3187-3198). The following antibodies were used: cyclin E (HE 12), cyclin D 1 (HD 11), cdk2 (M2), (D-12; Santa Cruz Biotechnology, Inc., Santa Cruz, USA), cdk4 (C-22), cdk6 (C-21), p27^KIP1 (C-19), (K25020), p45^SKP2 (N-19), HPV18-E7 (N-19) and E2F-1 (KH95) (Santa Cruz Biotechnology, Inc. Santa Cruz, USA), p21^CIP1 (C24420; Transduction Laboratories, Lexington, USA), pRB (NCL-RB; Novocastra, UK), p16^INK4 (15126E, Pharmingen, San Diego, USA) and HPV 16 E7 (ZYMED Lab. Inc., San Francisco, USA). Cyclin A was kindly provided by M. Pagano (Pagano et al., EMBO J. 11 (1992), 961-971). Equal protein transfer and loading was routinely checked by incubating the filters with a monoclonal actin antibody (ICN Biomedicals, Ohio, USA).

cyclin D1 = assay: Western blot of cyclin D1 in HeLa cells; type: cell-based, human; conditions: 6 mM sodium butyrate, 16 hours
Description: as §1, §2

p16^INK4 = assay: Western blot of p16^INK4 in HeLa cells; type: cell-based, human; conditions: 6 mM sodium butyrate, 16 hours
Description: (A) Westem blot analysis. 50 μg of cellular protein were loaded on SDS-PAGE minigels. After electrotransfer, the filters were incubated with p21^CIP1, p27^KIP1, p16^INK4 and p45^SKP2. Equal protein loading was confirmed by a monoclonal actin antibody.
as §2

cdk2 [1] = assay: Histone H1 kinase assay of cdk2 complexes from "1321" and "1637" keratinocytes; type: cell-based, human; conditions: "1321" and "1637" cells, 6 mM sodium butyrate, 16 hours
Description: (A) Upper panel: cdk2 complexes were immunoprecipitated and assayed for their activity using histone H1 as substrate. Lower panels: Western blot analysis of the cdk 2 complexes. Filters were incubated with specific antibodies against p21^CIP1 (=p21) and p27^KIP1 (=p27). Equal precipitation and loading was controlled by incubation with a cdk 2 antibody.
For cell fractionation, cell monolayers were washed twice with PBS and harvested by trypsinisation. Cell extract preparation and cdk2 activity assays were exactly done as described by Blomberg and Hoffmann, Mol. Cell. Biol. 19 (1999), 6183-6194. In addition, cdk2 was immunoprecipitated and analyzed by immunoblotting. Beads used for cdk2 kinase assay were washed 3 times with lysis buffer (Blomberg and Hoffmann, 1999), incubated with Laemmli sample buffer and boiled for 5 min. Supernatant was analyzed by SDS-PAGE gels. Immunoblotting was carried out with the following antibodies: p21^CIP1 (C24420) and p27^KIP1 (K25020; Transduction Laboratories) or HPV18-E7 (N-19; Santa Cruz, Inc.). Cdk2 specific antibodies or preimmune serum were kindly provided by I. Hoffmann (DKFZ, Heidelberg).

[2] = test system: HPV16 E6/E7 transcription; assay: Northern blot of HPV16 transcription in "1637" keratinocytes; type: cell-based; conditions: "1637" cells, NaB
Description: Keratinocytes immortalized with HPV16 E6/E7 either under control of (A) the homologues viral upstream regulatory region (,1637″) or (B) of the β-actin promoter (,1321″) were incubated with NaB for various periods of time. 5 μg of RNA was separated in 1% agarose gels. The filters were hybridized with probes specific for HPV16, p21^CIP1 (=p21), β-actin and GAPDH. The positions of the 28S and 18S ribosomal RNA are indicated. (Contr.): untreated cells.
(A) 5 μg of RNA was separated in 1% agarose gels. The filters were hybridized with HPV 16, p21^CIP1 (=) p21 and GAPDH-specific probes. The positions of the 28S and 18S ribosomal RNA are indicated.
Total cellular RNA was extracted according to the guanidinium-thiocyanate procedure (Chomczynski and Sacchi, Anal. Biochem. 162 (1987), 156-159). Approximately 5 μg RNA were separated on 1% agarose gels in the presence of ethidium bromide under non-denaturing conditions and transferred to GeneScreen Plus membranes (DuPont, Bad Homburg, Deutschland). The filters were hybridized under stringent conditions with specific probes, which were labeled with ^32p-dCTP by random priming (Feinberg and Vogelstein, Anal. Biochem. 137 (1984), 266-267).

cdk6 = assay: Western blot of cdk6 in HeLa cells; type: cell-based, human; conditions: 6 mM sodium butyrate, 16 hours
Description: as §1, §2

cdk2 [3] = assay: Western blot of cdk2 in HeLa cells; type: cell-based, human
Description: as §1
(A) Western blot analysis. 75 μg of total cellular protein was loaded on a 12% SDS-PAGE gel. After electrotransfer, the filters were incubated with antibodies directed against HPV18 E7, p21^CIP1 (=p21), p27^KIP1 (=p27) and cdk2.
as §2, with “Equal protein transfer and loading was routinely checked by incubating the filters with a monoclonal actin antibody (ICN Biomedicals, Ohio, USA).” left out

CCCC(=O)[O-].[Na+] [sodium butyrate]
number of cells in S-phase (HeLa cells; untreated 24.9%): 8.5% | G1 fraction (HeLa cells; untreated 56.8%): 75.7% | cdk4 expression (cdk4): neither the cyclin-dependent kinase 2 (cdk2) nor cdk4 or cdk6 revealed any significant influence on their expression rates | cyclin D1 protein level (cyclin D1): selectively downregulates | p16^INK4 protein level (p16^INK4): no reduction was discerned | cdk2 kinase activity (histone H1) (cdk2 [1]): inability of cdk2 to phosphorylate histone H1 | HPV16 mRNA, time course [2]: transient HPV16 mRNA suppression | cdk6 expression (cdk6): neither the cyclin-dependent kinase 2 (cdk2) nor cdk4 or cdk6 revealed any significant influence on their expression rates | cdk2 expression (cdk2 [3]; 6 mM sodium butyrate, 16 hours): neither the cyclin-dependent kinase 2 (cdk2) nor cdk4 or cdk6 revealed any significant influence on their expression rates | amount of cdk2, time course (cdk2 [3]; NaB time course): completely unaffected
